In the case of `OCCc1nccn1CCCCc1ccc(OCc2coc(/C=C/c3ccc(Br)cc3)n2)cc1` [Example 16, 2-[1-[4-[4-[[2-[(E)-2-(4-bromophenyl)ethenyl]-1,3-oxazol-4-yl]methoxy]phenyl]butyl]-1H-imidazol-2-yl]-1-ethanol], the melting point (commonly the temperature, or range, at which the solid turns liquid) is 149 to 150 °C.
Then `OCC(O)Cc1nccn1CCCCc1ccc(OCc2coc(/C=C/c3ccc(F)cc3F)n2)cc1` (stereo not shown) [Example 26, 3-(1-{4-[4-({2-[(E)-2-(2,4-difluorophenyl)ethenyl]-1,3-oxazol-4-yl]methoxy)phenyl]butyl}-1H-imidazol-2-yl)-1,2-propanediol], with 126 to 128 °C.
The result for `OCCc1nccn1CCCc1ccc(OCc2coc(/C=C/c3ccc(F)cc3F)n2)cc1` [Example 20, 2-[1-[3-[4-[[2-[(E)-2-(2,4-difluorophenyl)ethenyl]-1,3-oxazol-4-yl]methoxy]phenyl]propyl]-1H-imidazol-2-yl]-1-ethanol] reads 94 to 96 °C; that for `OCCc1nccn1CCCCc1ccc(OCc2coc(/C=C/c3ccc(Cl)cc3)n2)cc1` [Example 15, 2-[1-[4-[4-[[2-[(E)-2-(4-chlorophenyl)ethenyl]-1,3-oxazol-4-yl]methoxy]phenyl]butyl]-1H-imidazol-2-yl]-1-ethanol], 127 to 128 °C.
In turn, `Cc1ccc(/C=C/c2nc(COc3ccc(CCCCn4ccnn4)cc3)co2)cc1` [Example 1] came in with a melting point of 154 to 155 °C.
The result for `Fc1ccc(/C=C/c2nc(COc3ccc(CCCCn4ccnn4)cc3)co2)c(F)c1` [Example 7, 1-{4-[4-({2-[(E)-2-(2,4-difluorophenyl)ethenyl]-1,3-oxazol-4-yl}methoxy)phenyl]butyl}-1H-1,2,3-triazole] reads 115 to 117 °C; that for `OCCc1nccn1CCCCc1ccc(OCc2coc(/C=C/c3ccc(F)cc3)n2)cc1` [Example 14, 2-(1-(4-[4-({2-[(E)-2-(4-fluorophenyl)ethenyl]-1,3-oxazol-4-yl}methoxy)phenyl]butyl)-1H-imidazol-2-yl)-1-ethanol], 130 to 132 °C.
The result for `CCc1ccc(/C=C/c2nc(COc3ccc(CCCCn4ccnc4CCO)cc3)co2)cc1` [Example 13, 2-[1-[4-[4-[[2-[(E)-2-(4-ethylphenyl)ethenyl]-1,3-oxazol-4-yl]methoxy]phenyl]butyl]-1H-imidazol-2-yl]-1-ethanol] reads 94 to 95 °C.
`OCC(O)Cc1nccn1CCCc1cccc(OCc2coc(/C=C/c3ccc(C(F)(F)F)cc3)n2)c1` (stereo not shown) [Example 25, 3-[1-(3-{3-[(2-{(E)-2-[4-(trifluoromethyl)phenyl]ethenyl}-1,3-oxazol-4-yl)methoxy]phenyl}propyl)-1H-imidazol-2-yl]-1,2-propanediol] showed a melting point of 102 to 104 °C.
The result for `OC[C@H](O)Cc1nccn1CCCCc1ccc(OCc2coc(/C=C/c3ccc(F)cc3F)n2)cc1` [Example 29] reads 104 to 106 °C; that for `Cc1cccc(/C=C/c2nc(COc3ccc(CCCCn4ccnc4CCO)cc3)co2)c1` [Example 11, 2-[1-[4-[4-[[2-[(E)-2-(3-methylphenyl)ethenyl]-1,3-oxazol-4-yl]methoxy]phenyl]butyl]-1H-imidazol-2-yl]-1-ethanol], 109 to 111 °C.
Compound `FC(F)(F)c1ccc(/C=C/c2nc(COc3ccc(CCCn4ccnn4)cc3)co2)cc1` [Example 5, 1-(3-{4-[(2-((E)-2-[4-(trifluoromethyl)phenyl]ethenyl)-1,3-oxazol-4-yl)methoxy]phenyl}propyl)-1H-1,2,3-triazole] registered a melting point of 157 to 158 °C.
Then `OCCc1nccn1CCCCc1ccc(OCc2coc(/C=C/c3ccc(F)cc3F)n2)cc1` [Example 19, 2-[1-[4-[4-[[2-[(E)-2-(2,4-difluorophenyl)ethenyl]-1,3-oxazol-4-yl]methoxy]phenyl]butyl]-1H-imidazol-2-yl]-1-ethanol], with 93 to 95 °C.
`FC(F)(F)c1ccc(/C=C/c2nc(COc3cccc(CCCn4ccnn4)c3)co2)cc1` [Example 6, 1-(3-{3-[(2-((E)-2-[4-(trifluoromethyl)phenyl]ethenyl}-1,3-oxazol-4-yl)methoxy]phenyl}propyl)-1H-1,2,3-triazole] came in with a melting point of 115 to 116 °C.
The compound `OCC(O)Cc1nccn1CCCCc1ccc(OCc2coc(/C=C/c3c(F)cccc3F)n2)cc1` (stereo not shown) [Example 28, 3-[1-[4-[4-[[2-[(E)-2-(2,6-difluorophenyl)ethenyl]-1,3-oxazol-4-yl]methoxy]phenyl]butyl]-1H-imidazol-2-yl]-1,2-propanediol] showed a melting point of 123 to 125 °C.
`OCC(O)Cc1nccn1CCCCc1ccc(OCc2coc(/C=C/c3ccc(C(F)(F)F)cc3)n2)cc1` (stereo not shown) [Example 24, 3-[1-(4-(4-[(2-{(E)-2-[4-(trifluoromethyl)phenyl]ethenyl}-1,3-oxazol-4-yl)methoxy]phenyl}butyl)-1H-imidazol-2-yl]-1,2-propanediol]: the melting point fell in the range of 142 to 143 °C.
`OCC(O)Cc1nccn1CCCCc1ccc(OCc2coc(/C=C/c3ccc(F)cc3)n2)cc1` (stereo not shown) [Example 23, 3-(1-{4-[4-({2-[(E)-2-(4-fluorophenyl)ethenyl]-1,3-oxazol-4-yl}methoxy)phenyl]butyl}-1H-imidazol-2-yl)-1,2-propanediol] showed a melting point of 114 to 116 °C.
For the compound `Cc1ccccc1/C=C/c1nc(COc2ccc(CCCCn3ccnc3CCO)cc2)co1` [Example 12, 2-[1-[4-[4-[[2-[(E)-2-(2-methylphenyl)ethenyl]-1,3-oxazol-4-yl]methoxy]phenyl]butyl]-1H-imidazol-2-yl]-1-ethanol], the melting point was 91 to 93 °C.
The result for `OCCc1nccn1CCCCc1ccc(OCc2coc(/C=C/c3c(F)cccc3F)n2)cc1` [Example 21] reads 106 to 107 °C; that for `Cc1ccc(/C=C/c2nc(COc3ccc(CCCCn4ccnc4CCO)cc3)co2)cc1` [Example 10, 2-[1-[4-[4-[[2-[(E)-2-(4-methylphenyl)ethenyl]-1,3-oxazol-4-yl]methoxy]phenyl]butyl]-1H-imidazol-2-yl]-1-ethanol], 108 to 109 °C.
The result for `Cc1cccc(/C=C/c2nc(COc3ccc(CCCCn4ccnc4CC(O)CO)cc3)co2)c1` (stereo not shown) [Example 22, 3-(1-{4-[4-({2-[(E)-2-(3-methylphenyl)ethenyl]-1,3-oxazol-4-yl}methoxy)phenyl]butyl}-1H-imidazol-2-yl)-1,2-propanediol] reads 102 to 104 °C; that for `Fc1ccc(/C=C/c2nc(COc3cccc(CCCn4ccnn4)c3)co2)cc1` [Example 3, 1-{3-[3-({2-[(E)-2-(4-fluorophenyl)ethenyl]-1,3-oxazol-4-yl}methoxy)phenyl]propyl}-1H-1,2,3-triazole], 105 to 106 °C.
Then `Fc1ccc(/C=C/c2nc(COc3cccc(CCCn4ccnn4)c3)co2)c(F)c1` [Example 8, 1-{3-[3-({2-[(E)-2-(2,4-difluorophenyl)ethenyl]-1,3-oxazol-4-yl}methoxy)phenyl]propyl}-1H-1,2,3-triazole], with 89 to 90 °C; and `Fc1ccc(/C=C/c2nc(COc3ccc(CCCCn4ccnn4)cc3)co2)cc1` [Example 2, 1-{4-[4-({2-[(E)-2-(4-fluorophenyl)ethenyl]-1,3-oxazol-4-yl}methoxy)phenyl]butyl}-1H-1,2,3-triazole], with 124 to 125 °C; and `OC[C@@H](O)Cc1nccn1CCCCc1ccc(OCc2coc(/C=C/c3ccc(F)cc3F)n2)cc1` [Example 30], with 106 to 108 °C.

Values taken from US6716863B2, “Heterocyclic compounds their production and use” (Takeda Chemical Industries, Ltd., priority 2000, dated 2004).
